In ChEMBL document CHEMBL1201862, “PubChem BioAssay data set” (2004):
Several values for one entry are separate records, joined by “and”; a condition that tells them apart may be missing. Identical values can stand only once. Activity calls are given as the source filed them.

Columns and labels:
[1] = molecular target: Ubiquitin carboxyl-terminal hydrolase BAP1 (Homo sapiens, UniProt Q92560); assay: inhibition of BAP1 ubiquitin hydrolase activity – biochemical, dose response (AID 714); assay type: functional
[2] = Trypanosoma cruzi growth suppression in host cells – NIH3T3 host cells, beta-gal luminescence, confirmation (AID 2044); assay type: functional, cell-based;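 also: intracellular parasites grown in NIH/3T3 mouse fibroblasts as host cells; luminescent beta-galactosidase reporter signal from transgenic T. cruzi replicating inside host cells; inhibitors lower the luminescence signal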
[3] = reduction of Shn3 3'UTR-driven luciferase in osteoblasts – cell-based, Clone20 osteoblasts, firefly luciferase, cherry-picked, dose response (AID 624132); assay type: functional;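 also: firefly luciferase luminescence from reporter carrying the Shn3 3'UTR in osteoblasts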
[4] = NIH3T3 cell viability loss – ATP luminescence, mouse fibroblasts, counter-screen, dose response (AID 2010); assay type: functional, cell-based;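 also: cells exposed to compound for about 90 hours before reading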
[5] = loss of viability in HepG2 cells – cell-based, CellTiter-Glo, cherry-picked, cytotoxicity control for Shn3 inhibitor project, dose response (AID 624134); assay type: functional
[6] = non-specific 3'UTR reporter inhibition in Clone20-Shn3RL – cell-based, Renilla luciferase, cherry-picked, counter-screen for Shn3 inhibitor project, dose response (AID 624133); assay type: functional
Bcl-2-related protein A1 [7] = molecular target: T1, Bcl-2-related protein A1 (Mus musculus, UniProt Q07440); assay: displacement of Bid BH3 peptide from Bfl-1 – biochemical, fluorescence polarization, FITC-Bid, mouse, primary screen (AID 432)
T1 sequence (Q07440 whole entry): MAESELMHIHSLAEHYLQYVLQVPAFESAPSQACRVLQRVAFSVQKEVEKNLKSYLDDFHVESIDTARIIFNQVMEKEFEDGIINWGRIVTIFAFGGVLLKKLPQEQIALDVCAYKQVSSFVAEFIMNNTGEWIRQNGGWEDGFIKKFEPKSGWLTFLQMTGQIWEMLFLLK

Estrogen receptor beta = Estrogen receptor beta (Homo sapiens, UniProt Q92731); assay: blockers of SRC-3 recruitment to ERβ – biochemical, ELISA, streptavidin-HRP readout, orthogonal assay, confirmation (AID 1060)
Bcl-2-related protein A1 [8] = molecular target: T1, Bcl-2-related protein A1; assay: small-molecule antagonists of Bfl-1/BH3 interaction – biochemical, TR-FRET, mouse Bfl-1, confirmation (AID 621);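 also: TR-FRET binding of GST-Bfl-1 to FITC-labelled Bid peptide via terbium antibody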
[9] = molecular target: Glyceraldehyde-3-phosphate dehydrogenase (Homo sapiens, UniProt P04406)
[10] = viability of PTEN-deleted HCT116 cells – cell-based, HCT116 PTEN knockout, dose response (AID 1047); assay type: functional;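 also: HCT116 colon tumor cells with PTEN knocked out; cells exposed to compound for 60 hours before readout; potency for loss of cell viability measured by luminescence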
[11] = viability of HCT116 lacking mutant beta-catenin – cell-based, human colon tumor, dose response (AID 1045); assay type: functional;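 also: HCT116 colon tumor cells with beta catenin knocked out; cells exposed to compound for 60 hours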
Bcl-2-related protein A1 [12] = molecular target: T1, Bcl-2-related protein A1; assay: Bfl-1 binding inhibitors, SAR follow-up, biochemical, fluorescence polarization (AID 1070)
[13] = viability inhibitors of stage V gametocytes – luminescence, dose response (AID 1117278); assay type: functional, cell-based;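 also: gametocytes exposed to compound for 24 hours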
[14] = viability loss in human Jurkat cells – cell-based, luminescence, cytotoxicity control for P. falciparum gametocyte viability project, dose response (AID 1117277); assay type: functional;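 also: potency reflects loss of cellular ATP meaning fewer viable cells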
Insulin-degrading enzyme = molecular target: T2, Insulin-degrading enzyme (Homo sapiens, UniProt P14735); assay: Dose Response: Fluorescence polarization-based cell-based high throughput dose response assay for inhibitors of insulin-degrading enzyme (IDE). [Related pubchem assays: 434962 (Primary screen (IDE inhibitors in singlicate)), 449730 (Counterscreen (Cytotoxicity in triplicate)), 435028 (Confirmation (IDE inhibitors in triplicate)), 434984 (Summary …; assay type: functional
T2 sequence (P14735 whole entry): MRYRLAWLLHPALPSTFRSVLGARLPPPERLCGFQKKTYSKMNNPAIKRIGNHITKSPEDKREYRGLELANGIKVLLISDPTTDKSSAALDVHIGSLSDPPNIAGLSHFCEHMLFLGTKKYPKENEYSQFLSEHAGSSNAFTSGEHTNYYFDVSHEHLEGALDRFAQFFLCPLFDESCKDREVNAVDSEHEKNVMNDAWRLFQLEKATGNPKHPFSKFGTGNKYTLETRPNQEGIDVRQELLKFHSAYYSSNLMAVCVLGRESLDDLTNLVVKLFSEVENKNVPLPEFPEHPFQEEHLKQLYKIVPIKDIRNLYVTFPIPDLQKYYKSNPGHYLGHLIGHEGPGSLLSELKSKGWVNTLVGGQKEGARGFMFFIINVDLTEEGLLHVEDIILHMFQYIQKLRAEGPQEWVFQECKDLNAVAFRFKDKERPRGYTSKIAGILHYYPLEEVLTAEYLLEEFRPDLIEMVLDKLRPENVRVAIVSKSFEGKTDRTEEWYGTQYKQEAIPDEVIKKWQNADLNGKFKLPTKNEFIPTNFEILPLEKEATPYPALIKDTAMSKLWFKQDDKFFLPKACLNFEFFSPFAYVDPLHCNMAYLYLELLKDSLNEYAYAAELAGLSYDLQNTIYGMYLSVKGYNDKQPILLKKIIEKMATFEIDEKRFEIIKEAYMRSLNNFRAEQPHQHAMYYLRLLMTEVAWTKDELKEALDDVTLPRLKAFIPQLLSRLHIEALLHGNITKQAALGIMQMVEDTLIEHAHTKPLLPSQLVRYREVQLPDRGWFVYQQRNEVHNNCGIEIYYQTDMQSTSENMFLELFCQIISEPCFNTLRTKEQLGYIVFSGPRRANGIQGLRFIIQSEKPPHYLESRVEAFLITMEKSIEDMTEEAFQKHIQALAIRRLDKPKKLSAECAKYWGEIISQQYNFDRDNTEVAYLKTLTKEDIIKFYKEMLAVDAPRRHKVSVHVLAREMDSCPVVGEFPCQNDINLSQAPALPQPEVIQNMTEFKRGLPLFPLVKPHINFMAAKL

[15] = molecular target: T3, Mannose-6-phosphate isomerase (Homo sapiens, UniProt P34949); assay: MPI inhibition at elevated mannose 6-phosphate – biochemical, fluorescence intensity, high mannose 6-phosphate, primary screen (AID 1220)
T3 sequence (P34949 whole entry): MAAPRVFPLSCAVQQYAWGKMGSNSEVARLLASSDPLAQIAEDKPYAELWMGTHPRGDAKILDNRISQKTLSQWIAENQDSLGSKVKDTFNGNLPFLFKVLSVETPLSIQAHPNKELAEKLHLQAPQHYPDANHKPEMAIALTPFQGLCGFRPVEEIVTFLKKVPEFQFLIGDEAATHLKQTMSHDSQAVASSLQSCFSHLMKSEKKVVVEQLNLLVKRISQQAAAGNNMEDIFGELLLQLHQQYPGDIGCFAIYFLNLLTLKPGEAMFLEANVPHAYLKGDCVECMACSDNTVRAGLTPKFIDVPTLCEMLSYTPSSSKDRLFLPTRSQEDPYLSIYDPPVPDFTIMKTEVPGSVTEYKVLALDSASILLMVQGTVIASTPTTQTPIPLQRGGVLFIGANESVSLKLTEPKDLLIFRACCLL

[16] = molecular target: T4, Voltage-gated N-type calcium channel alpha-1B subunit/Amyloid beta A4 precursor protein-binding family A member 1 (Homo sapiens, UniProt Q00975+Q02410); assay type: protein assay
[17] = molecular target: T4, Voltage-gated N-type calcium channel alpha-1B subunit/Amyloid beta A4 precursor protein-binding family A member 1; assay type: protein assay; remark: listed apart in the source
14-3-3 protein gamma = 14-3-3 protein gamma (Homo sapiens, UniProt P61981); assay: modulators of 14-3-3 gamma client binding – dose response (AID 711); assay type: functional
Sequence of 14-3-3 protein gamma (P61981 whole entry): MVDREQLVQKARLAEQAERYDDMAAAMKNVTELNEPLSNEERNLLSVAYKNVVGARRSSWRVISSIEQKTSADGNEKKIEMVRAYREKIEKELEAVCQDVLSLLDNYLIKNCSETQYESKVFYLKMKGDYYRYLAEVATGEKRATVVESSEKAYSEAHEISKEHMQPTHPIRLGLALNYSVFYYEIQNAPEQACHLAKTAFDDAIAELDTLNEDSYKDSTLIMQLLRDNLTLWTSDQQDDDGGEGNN

T4 sequence (Q00975 whole entry): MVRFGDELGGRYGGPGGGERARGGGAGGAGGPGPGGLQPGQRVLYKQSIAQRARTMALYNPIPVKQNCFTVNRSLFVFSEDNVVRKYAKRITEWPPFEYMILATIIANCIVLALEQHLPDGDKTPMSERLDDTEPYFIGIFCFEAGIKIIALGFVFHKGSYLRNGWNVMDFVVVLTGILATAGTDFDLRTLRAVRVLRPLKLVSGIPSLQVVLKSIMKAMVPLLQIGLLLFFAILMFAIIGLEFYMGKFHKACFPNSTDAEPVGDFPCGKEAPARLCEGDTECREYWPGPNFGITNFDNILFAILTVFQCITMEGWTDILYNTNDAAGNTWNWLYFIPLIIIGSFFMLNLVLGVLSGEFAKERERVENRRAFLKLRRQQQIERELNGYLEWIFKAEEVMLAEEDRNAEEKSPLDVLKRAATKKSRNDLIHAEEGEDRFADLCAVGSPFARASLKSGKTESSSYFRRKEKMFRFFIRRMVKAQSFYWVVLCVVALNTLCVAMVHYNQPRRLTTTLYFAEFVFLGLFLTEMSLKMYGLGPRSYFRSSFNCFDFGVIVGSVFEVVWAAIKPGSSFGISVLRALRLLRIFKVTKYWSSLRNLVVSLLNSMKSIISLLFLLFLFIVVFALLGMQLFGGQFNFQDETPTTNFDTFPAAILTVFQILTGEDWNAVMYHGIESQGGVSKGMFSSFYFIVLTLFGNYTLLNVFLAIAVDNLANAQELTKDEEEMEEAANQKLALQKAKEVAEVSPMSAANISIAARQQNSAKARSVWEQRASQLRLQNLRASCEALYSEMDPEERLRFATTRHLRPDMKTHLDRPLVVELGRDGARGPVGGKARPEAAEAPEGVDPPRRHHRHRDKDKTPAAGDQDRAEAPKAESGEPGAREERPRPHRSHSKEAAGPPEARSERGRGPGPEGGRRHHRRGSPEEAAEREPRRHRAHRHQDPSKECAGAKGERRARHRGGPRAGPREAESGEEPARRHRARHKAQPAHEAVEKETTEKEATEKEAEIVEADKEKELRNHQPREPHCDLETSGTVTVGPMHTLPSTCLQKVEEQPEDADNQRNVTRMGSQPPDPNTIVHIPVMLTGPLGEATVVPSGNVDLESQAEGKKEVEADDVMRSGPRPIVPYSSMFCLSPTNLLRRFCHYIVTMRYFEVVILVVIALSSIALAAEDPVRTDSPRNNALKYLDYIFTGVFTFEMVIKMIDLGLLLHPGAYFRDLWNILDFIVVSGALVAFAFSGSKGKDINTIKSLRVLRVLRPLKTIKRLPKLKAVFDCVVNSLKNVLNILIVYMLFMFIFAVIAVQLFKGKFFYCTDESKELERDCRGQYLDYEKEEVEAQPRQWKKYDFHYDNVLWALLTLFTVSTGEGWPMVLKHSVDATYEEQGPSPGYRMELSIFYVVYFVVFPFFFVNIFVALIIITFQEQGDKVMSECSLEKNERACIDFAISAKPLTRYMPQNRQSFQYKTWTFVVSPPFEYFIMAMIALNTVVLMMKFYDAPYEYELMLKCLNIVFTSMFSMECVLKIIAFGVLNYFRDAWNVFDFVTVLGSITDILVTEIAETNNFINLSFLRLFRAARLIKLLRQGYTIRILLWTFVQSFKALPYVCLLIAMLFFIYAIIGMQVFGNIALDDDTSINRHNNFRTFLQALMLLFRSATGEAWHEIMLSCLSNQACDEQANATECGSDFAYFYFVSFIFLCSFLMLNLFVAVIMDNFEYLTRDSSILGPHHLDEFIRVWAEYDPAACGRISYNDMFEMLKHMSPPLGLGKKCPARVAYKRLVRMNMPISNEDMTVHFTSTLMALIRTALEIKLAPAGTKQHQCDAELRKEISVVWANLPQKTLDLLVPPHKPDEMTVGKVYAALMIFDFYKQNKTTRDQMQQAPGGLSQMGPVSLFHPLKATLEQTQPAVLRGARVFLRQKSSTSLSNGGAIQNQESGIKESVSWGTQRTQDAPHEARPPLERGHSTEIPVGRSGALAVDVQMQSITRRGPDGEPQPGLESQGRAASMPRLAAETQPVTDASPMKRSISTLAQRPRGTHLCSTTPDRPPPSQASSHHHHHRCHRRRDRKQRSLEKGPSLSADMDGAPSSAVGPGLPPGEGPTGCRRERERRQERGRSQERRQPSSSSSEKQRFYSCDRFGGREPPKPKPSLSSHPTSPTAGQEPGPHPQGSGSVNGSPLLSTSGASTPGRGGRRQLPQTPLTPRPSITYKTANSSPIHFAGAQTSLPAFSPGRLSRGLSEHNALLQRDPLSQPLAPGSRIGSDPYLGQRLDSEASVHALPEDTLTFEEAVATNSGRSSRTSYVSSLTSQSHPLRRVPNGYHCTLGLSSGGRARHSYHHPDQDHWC
T4 sequence (Q02410 whole entry): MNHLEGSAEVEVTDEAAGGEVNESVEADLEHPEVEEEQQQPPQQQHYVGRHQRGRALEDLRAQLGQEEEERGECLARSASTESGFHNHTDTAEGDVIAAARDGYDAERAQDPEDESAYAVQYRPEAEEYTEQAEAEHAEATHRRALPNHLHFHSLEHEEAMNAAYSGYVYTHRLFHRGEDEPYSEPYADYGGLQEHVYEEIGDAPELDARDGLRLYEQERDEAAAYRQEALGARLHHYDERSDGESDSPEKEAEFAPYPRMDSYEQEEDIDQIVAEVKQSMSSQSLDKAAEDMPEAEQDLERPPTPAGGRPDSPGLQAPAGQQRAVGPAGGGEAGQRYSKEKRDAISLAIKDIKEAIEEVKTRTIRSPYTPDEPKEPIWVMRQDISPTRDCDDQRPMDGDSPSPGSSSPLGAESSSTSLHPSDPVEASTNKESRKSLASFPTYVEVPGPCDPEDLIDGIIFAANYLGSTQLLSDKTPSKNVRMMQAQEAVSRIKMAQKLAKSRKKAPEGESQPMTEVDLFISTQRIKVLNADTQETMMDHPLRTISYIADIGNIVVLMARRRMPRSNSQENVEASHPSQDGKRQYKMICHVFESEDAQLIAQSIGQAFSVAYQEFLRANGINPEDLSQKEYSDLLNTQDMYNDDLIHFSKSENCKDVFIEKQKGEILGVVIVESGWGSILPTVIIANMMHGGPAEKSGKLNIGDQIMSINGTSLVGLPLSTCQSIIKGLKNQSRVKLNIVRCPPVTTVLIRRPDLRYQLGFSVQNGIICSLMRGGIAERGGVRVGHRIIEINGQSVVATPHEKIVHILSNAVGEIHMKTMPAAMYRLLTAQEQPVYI
Sequence of Ubiquitin carboxyl-terminal hydrolase BAP1 (Q92560 whole entry): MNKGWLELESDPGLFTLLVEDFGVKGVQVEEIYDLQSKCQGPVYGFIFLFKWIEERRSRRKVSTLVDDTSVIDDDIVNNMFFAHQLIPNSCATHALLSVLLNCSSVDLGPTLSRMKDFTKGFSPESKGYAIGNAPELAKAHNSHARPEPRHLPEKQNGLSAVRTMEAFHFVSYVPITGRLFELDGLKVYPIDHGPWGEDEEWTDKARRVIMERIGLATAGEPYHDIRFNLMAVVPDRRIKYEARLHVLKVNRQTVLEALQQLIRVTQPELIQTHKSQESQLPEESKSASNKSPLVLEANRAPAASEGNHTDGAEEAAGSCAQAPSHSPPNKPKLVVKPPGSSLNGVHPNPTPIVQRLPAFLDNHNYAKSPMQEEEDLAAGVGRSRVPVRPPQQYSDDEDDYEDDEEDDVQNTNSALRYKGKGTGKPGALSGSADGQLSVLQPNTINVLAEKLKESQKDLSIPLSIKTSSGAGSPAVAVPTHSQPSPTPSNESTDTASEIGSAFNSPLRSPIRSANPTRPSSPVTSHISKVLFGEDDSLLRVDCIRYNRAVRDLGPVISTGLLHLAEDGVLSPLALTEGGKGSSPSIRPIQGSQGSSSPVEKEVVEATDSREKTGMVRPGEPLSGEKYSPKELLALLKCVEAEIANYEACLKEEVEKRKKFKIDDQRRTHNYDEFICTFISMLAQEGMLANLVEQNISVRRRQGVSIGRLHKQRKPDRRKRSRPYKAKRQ
Sequence of Glyceraldehyde-3-phosphate dehydrogenase (P04406 whole entry): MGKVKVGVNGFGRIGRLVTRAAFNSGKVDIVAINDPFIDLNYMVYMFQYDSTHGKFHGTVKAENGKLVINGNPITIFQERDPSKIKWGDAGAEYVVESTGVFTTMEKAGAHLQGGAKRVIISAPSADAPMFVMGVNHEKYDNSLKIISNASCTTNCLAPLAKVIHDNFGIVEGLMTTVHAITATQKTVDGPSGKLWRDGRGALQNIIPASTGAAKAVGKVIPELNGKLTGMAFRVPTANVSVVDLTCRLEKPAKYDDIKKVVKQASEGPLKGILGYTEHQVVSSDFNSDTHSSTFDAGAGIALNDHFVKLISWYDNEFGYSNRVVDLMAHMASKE
Sequence of Estrogen receptor beta (Q92731 whole entry): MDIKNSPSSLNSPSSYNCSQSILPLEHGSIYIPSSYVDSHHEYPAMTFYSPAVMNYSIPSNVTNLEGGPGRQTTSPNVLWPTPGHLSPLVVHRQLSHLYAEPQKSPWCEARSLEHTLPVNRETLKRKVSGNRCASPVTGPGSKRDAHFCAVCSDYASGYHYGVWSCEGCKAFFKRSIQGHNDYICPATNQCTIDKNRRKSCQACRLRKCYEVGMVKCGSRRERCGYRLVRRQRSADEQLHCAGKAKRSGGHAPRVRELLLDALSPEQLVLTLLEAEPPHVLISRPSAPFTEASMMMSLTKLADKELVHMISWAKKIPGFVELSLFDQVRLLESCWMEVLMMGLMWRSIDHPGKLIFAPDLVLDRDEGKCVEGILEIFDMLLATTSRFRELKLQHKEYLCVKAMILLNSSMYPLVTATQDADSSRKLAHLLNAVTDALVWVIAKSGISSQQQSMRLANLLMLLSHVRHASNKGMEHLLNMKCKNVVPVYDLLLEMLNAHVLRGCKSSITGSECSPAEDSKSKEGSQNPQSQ

With `N#Cc1c(NC(=O)CSc2ncnc3c2cnn3-c2ccccc2Cl)sc2c1CCCC2` the IC50 [1] was > 50 µM (not active).

For `c1ccc(Nc2nc(NCC3CCCO3)c3ccccc3n2)cc1` (stereo unspecified), the EC50 [2] was < 0.1 µM (active), the EC50 (cells) was 0.131 µM (active) and the AC50 [3] was 21.7 µM (active). The EC50 [4] was > 60 µM (not active), the AC50 [5] was 7.09 µM (active) and the AC50 [6] was 4.84 µM (active).

With `CC1CCN(Cc2ccc(NC(=O)C3CCN(c4nnc(-n5cccc5)s4)CC3)cc2)CC1` the IC50 (Bcl-2-related protein A1 [7]) was > 100 µM (not active), the IC50 (Estrogen receptor beta) was 1.1 µM (not active) and the IC50 (Bcl-2-related protein A1 [8]) was 35.1 µM (active) and > 100 µM (not active). The IC50 [9] was > 100 µM (not active), the EC50 [10] was 21.4 µM (active) and the EC50 [11] was 61.6 µM (active). For the same compound, the IC50 (Bcl-2-related protein A1 [12]) was 20.8 µM (active).

With `COc1ccc(CC(=O)Nc2cccc(-c3ccc4nnc(C)n4n3)c2)cc1OC` the IC50 [13] was > 109 µM (inactive) and the IC50 [14] was 35.6 µM (inactive).

For `O=c1[nH]c2ccccc2c(O)c1O`, the IC50 (Insulin-degrading enzyme) was 3.28 µM (active), the IC50 [15] was 9.69 µM (active) and the IC50 [16] was 28.5 µM (active). For the same compound, the IC50 [17] was 2.71 µM (active).

In the case of `OC(CN1CCOCC1)CN(c1ccccc1)c1ccccc1` (stereo unspecified), the IC50 (14-3-3 protein gamma) is reported as > 50 µM (not active).
